According to patent publication US20220133672A1, “NOTCH INHIBITORS FOR THE TREATMENT OF VASCULAR MALFORMATIONS” (The University of North Carolina at Chapel Hill, priority 2018, published 2022):

Tests used:
[1] = tested on: Notch target gene Hey1 in HUVEC; test: Quantitative RT-PCR of Notch target gene Hey1 in HUVEC; type: cell-based, human; details: 24 hrs post treatment
Method: RNA was extracted from cultured HUVEC or hLEC cells either 24 hrs or 72 hrs post treatment respectively using TRIzol reagent (Ambion 15596026) followed by DNase (Promega M6101) treatment and cDNA prepared using iScript (BioRad 170-8890). Quantitative RT-PCR was done on StepOnePlus (ABI) using TaqMan Gene Expression Master Mix (ThermoFisher Scientific 4369016). Gene expression was assessed using human Single-tube assays (Thermo Fisher Scientific/Applied Biosystems): GAPDH (4310884E), ACTB (Hs99999903_m1) and HEY1 (Hs01114113_m1). Comparative ΔΔCT method was used to analyze relative gene expression with ExpressionSuite Software (Thermo Fisher Scientific). Expression was normalized to housekeeping controls GAPDH and ACTB.

[2] = tested on: HUVEC tube/network formation; test: Tube formation assay in Matrigel matrix, HUVEC; type: cell-based, human; details: for inhibition of angiogenesis in Notch-expressing HUVECs / number of branch points per field: HUVEC; for number of branch points per field: all concentrations (2-20 μM); for network formation by HUVEC: lowest concentration (2 μM), 24 hrs
Method: Tube formation assay—This assay was performed based on the protocol by Arnaoutova and Kleinman, 2010^37.

[3] = tested on: hLEC migration; test: Scratch migration assay, hLEC; type: cell-based, human
Method: (§1) Scratch migration assay—Migration assay was performed as per Liang et al., 2007^36, HUVECs and hLECs were grown to confluence in 24 well dishes, and then scratched with a 200 μL pipette tip. […] Four fields per well were imaged at T=0 hrs and at T=24 hrs post-scratch or T=72 hrs for HUVECs and hLECs respectively using an Olympus IX-81 inverted microscope equipped with a QImaging Retiga 4000R camera at 4× magnification. The percent change in migration was calculated by measuring the open area of the scratch at the above mentioned time-points (ImageJ). Results shown are representative of four independent experiments with HUVECs and three for hLECs.

[4] = tested on: HUVEC migration; test: Scratch migration assay, HUVEC; type: cell-based, human
Method: as §1

[5] = tested on: human lymphatic endothelial cells (hLECs); test: Cell viability (trypan blue, Countess automated cell counter), hLEC; type: cell-based; details: for change of hLEC viability at concentrations less than 20 μM: concentrations lower than 20 μM, vs untreated controls
Method: (§2) Dermal human lymphatic endothelial cells (hLECs) from human neonates (HMVEC-dLyNeo-Der, Lonza CC-2812) and human umbilical venous endothelial cells (HUVEC, Lonza CC-2517) were used for in vitro assays (below) within 8 passages and maintained in EGM-2MV bullet kit (Lonza CC3202) and EGM bullet kit media respectively.
(§3) Cell viability: To examine the effect of GSI on cell viability, hLEC and HUVEC cultures were incubated with effects of graded concentrations [2, 4, 6, 8, 10, 20 μM] of DAPT (Selleckchem, S2215) or RO4909297 (Selleckchem, S1575) [2-20 μM] for 24-72 hours. The percentage of viable cells was determined using the Countess automated cell counter (Thermofisher, C10227). Briefly, 80-90% confluent HUVEC and hLEC cultures were trypsinized, washed, and 10 μL of cell sample was mixed with an equal amount of 0.4% trypan blue stain and loaded onto the counting chamber.

[6] = as above; type: cell-based, human; details: human; 20 μM, hLEC; read-out: reduction of hLEC viability
Method: as §2, §3

C[C@H](NC(=O)Cc1cc(F)cc(F)c1)C(=O)N[C@H](C(=O)OC(C)(C)C)c1ccccc1 [DAPT, N-[N-(3,5-difluorophenacetyl-L-alanyl)]-S-phenylglycine t-butyl ester]
lowest concentration that downregulated Hey1 expression in HUVECs [1]: 4 µM
inhibition of angiogenesis in Notch-expressing HUVECs [2]: effective in inhibiting angiogenesis
number of branch points per field [2]: significantly reduced
network formation by HUVEC [2]: dramatically reduced
hLEC migration reduced to ([3]; 8 μM, hLEC, 72 hrs post-scratch): about 50%
HUVEC migration reduced to ([4]; 8 μM, 24 hrs post-scratch): about 35%
reduction of hLEC viability ([5]; 20 μM, hLEC): ~30%
change of hLEC viability at concentrations less than 20 μM [5]: without significant changes

CC(C)(C(=O)NCC(F)(F)C(F)(F)F)C(=O)N[C@@H]1C(=O)Nc2ccccc2-c2ccccc21 [RO4929097, 2,2-Dimethyl-N-[(7S)-6-oxo-6,7-dihydro-5H-dibenzo[b,d]azepin-7-yl]-N′-(2,2,3,3,3-pentafluoropropyl)malonamide]
lowest concentration that downregulated Hey1 expression in HUVECs [1]: 2 µM
inhibition of angiogenesis in Notch-expressing HUVECs [2]: effective in inhibiting angiogenesis
number of branch points per field [2]: significantly reduced
network formation by HUVEC [2]: dramatically reduced
effectiveness on hLEC migration compared with 8 μM DAPT ([3]; 6 μM, hLEC): more effective
reduction of migration in hLECs ([3]; at lower concentrations compared to HUVECs): greater than 50%
effectiveness on HUVEC migration compared with 8 μM DAPT ([4]; 6 μM): more effective
cytotoxicity at 20 μM [6]: ~30%
change of hLEC viability at concentrations less than 20 μM [5]: without significant changes
